Converted amounts (≈) assume the structure as drawn.
Assays:
physchem [1] = conditions: 30% CH3CN/acetate buffer, pH 4
Description: Half life in pH 4 30%CH3CN/acetate buffer at 50 mM by RP-UPLC analysis

physchem [2] = conditions: phosphate buffer, pH 7.4
Description: Aqueous solubility of the compound in pH 7.4 phosphate buffer by RP-UPLC analysis

physchem [3] = conditions: acetate buffer, pH 4
Description: Aqueous solubility of the compound in pH 4 acetate buffer by RP-UPLC analysis

physchem [4] = conditions: 30% CH3CN/phosphate buffer, pH 7.4
Description: Half life in pH 7.4 30%CH3CN/phosphate buffer at 50 mM by RP-UPLC analysis

physchem [5] = conditions: HCl buffer, pH 1
Description: Aqueous solubility of the compound in pH 1 HCl buffer by RP-UPLC analysis

physchem [6] = conditions: 30% CH3CN/HCl buffer, pH 1
Description: Half life in pH 1 30%CH3CN/HCl buffer at 50 mM by RP-UPLC analysis

[7] = rat, in vivo, po, 3 mg/kg
[8] = rat, in vivo, po, 3 mg/kg; remark: listed apart in the source
Description: AUClast in cannulated Sprague-Dawley rat assessed as atazanavir level at 3 mg/kg equiv of atazanavir administered orally by UPLC/MS/MS analysis

physchem [9] = conditions: 30% CH3CN/phosphate buffer, pH 6.5
Description: Half life in pH 6.5 30%CH3CN/phosphate buffer at 50 mM by RP-UPLC analysis

physchem [10] = conditions: phosphate buffer, pH 6.5
Description: Aqueous solubility of the compound in pH 6.5 phosphate buffer by RP-UPLC analysis

[11] = rat, in vivo, po, 3 mg/kg; remark: listed apart in the source
[12] = Ratio of test compound to atazanavir aqueous solubility in pH 6.5 phosphate buffer by RP-UPLC analysis; assay type: physicochemical
Protease = Protease (Human immunodeficiency virus 1, UniProt Q9YQ12)
Protease, sequence (Q9YQ12 whole entry): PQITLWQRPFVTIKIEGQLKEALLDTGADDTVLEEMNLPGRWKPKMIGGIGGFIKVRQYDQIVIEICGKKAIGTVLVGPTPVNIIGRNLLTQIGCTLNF
Description: Inhibition of HIV1 protease activity

[13] = test system: Human immunodeficiency virus 1
Description: Antiviral activity against HIV1 NL4-3 infected in human MT2 cells assessed as reduction in viral yield measured after 4 days by EnduRen live cell substrate based luciferase reporter gene assay

in vitro [14] = conditions: human, Caco-2
Description: Efflux ratio of apparent permeability across basolateral to apical side over apical to basolateral side in human Caco2 cells

in vitro [15] = conditions: human, Caco-2; remark: listed apart in the source
Description: Apparent permeability across basolateral to apical side in human Caco2 cells at 2 uM

in vitro [16] = conditions: human, Caco-2; remark: listed apart in the source
Description: Apparent permeability across apical to basolateral side in human Caco2 cells at 2 uM

[17] = Prodrug conversion assessed as calf intestinal alkaline phosphatase-mediated compound dephosphorylation by UPLC-MS/MS analysis; assay type: ADME, Bos taurus; conditions: cattle, isolated protein
[18] = Prodrug conversion in cannulated Sprague-Dawley rat plasma assessed as atazanavir formation at 3 mg/kg equiv of atazanavir administered orally by UPLC/MS/MS analysis; assay type: ADME, organism-based; conditions: in vivo, po

Row | SMILES | half-life at 50000 µM (physchem [1]) | solubility (physchem [2]) | solubility (physchem [3]) | half-life at 50000 µM (physchem [4]) | solubility (physchem [5]) | half-life at 50000 µM (physchem [6]) | Cmax [7] | AUClast [8] | half-life at 50000 µM (physchem [9]) | solubility (physchem [10]) | Tmax [11] | Ratio [12] | IC50 (Protease) | EC50 [13] | efflux ratio (in vitro [14]) | Papp B→A at 2 µM (in vitro [15]) | Papp A→B at 2 µM (in vitro [16]) | Drug metabolism [17] | Drug metabolism [18]
1 | COC(=O)N[C@H](C(=O)N[C@@H](Cc1ccccc1)[C@H](CN(Cc1ccc(-c2ccccn2)cc1)NC(=O)[C@@H](NC(=O)OC)C(C)(C)C)OC(=O)[C@H](N)CCSC)C(C)(C)C | > 20.8 days | 45 µg/mL (≈ 53.8 µM) | > 890 µg/mL | 4.05 days | > 990 µg/mL | > 20.8 days | – | – | – | – | – | – | – | – | – | – | – | – | –
2 | COC(=O)N[C@H](C(=O)N[C@@H](Cc1ccccc1)[C@H](CN(Cc1ccc(-c2ccccn2)cc1)NC(=O)[C@@H](NC(=O)OC)C(C)(C)C)OC(=O)[C@@H](NC(=O)[C@H](N)C(C)C)C(C)C)C(C)(C)C | > 20.8 days | – | > 2000 µg/mL | – | > 2000 µg/mL | > 20.8 days | – | – | > 20.8 days | 620 µg/mL (≈ 686 µM) | – | – | 4 to 1140 nM | 0.9 to 1250 nM | – | – | – | – | –
3 | COC(=O)N[C@H](C(=O)N[C@@H](Cc1ccccc1)[C@H](CN(Cc1ccc(-c2ccccn2)cc1)NC(=O)[C@@H](NC(=O)OC)C(C)(C)C)OC(=O)[C@@H](N)CCSC)C(C)(C)C | > 20.8 days | 44 µg/mL (≈ 52.6 µM) | > 1530 µg/mL | 4.33 days | > 1630 µg/mL | > 20.8 days | 37 nM | 0.053 µM·h | – | – | 0.0346 days | – | – | – | – | – | – | – | –
4 | COC(=O)N[C@H](C(=O)N[C@@H](Cc1ccccc1)[C@H](CN(Cc1ccc(-c2ccccn2)cc1)NC(=O)[C@@H](NC(=O)OC)C(C)(C)C)OC(=O)[C@H](C)N)C(C)(C)C | > 20.8 days | – | > 1100 µg/mL | – | > 1300 µg/mL | > 20.8 days | 39 nM | 0.094 µM·h | 1.57 days | 750 µg/mL (≈ 967 µM) | 0.12 days | – | 4 to 1140 nM | 0.9 to 1250 nM | – | – | – | – | –
5 | COC(=O)N[C@H](C(=O)N[C@@H](Cc1ccccc1)[C@H](CN(Cc1ccc(-c2ccccn2)cc1)NC(=O)[C@@H](NC(=O)OC)C(C)(C)C)OC(=O)[C@@H](N)Cc1ccc(F)cc1)C(C)(C)C | > 20.8 days | < 1 µg/mL | > 980 µg/mL | 13.9 days | > 1380 µg/mL | > 20.8 days | 305 nM | 0.463 µM·h | – | – | 0.021 days | – | – | – | > 5.5 | 8.2 ×10⁻⁶ cm/s | < 1.5 ×10⁻⁶ cm/s | – | –
6 | COC(=O)N[C@H](C(=O)N[C@@H](Cc1ccccc1)[C@H](CN(Cc1ccc(-c2ccccn2)cc1)NC(=O)[C@@H](NC(=O)OC)C(C)(C)C)OC(=O)[C@@H](C)N)C(C)(C)C | > 20.8 days | – | > 1700 µg/mL | – | > 1300 µg/mL | > 20.8 days | 3 nM | 0.008 µM·h | 1.57 days | 520 µg/mL (≈ 670 µM) | 0.179 days | – | 4 to 1140 nM | 0.9 to 1250 nM | – | – | – | – | –
7 | Cc1cccc(C)c1OCC(=O)N[C@@H](Cc1ccccc1)[C@H](C[C@H](Cc1ccccc1)NC(=O)[C@H](C(C)C)N1CCCNC1=O)OP(=O)(O)O | – | – | – | – | – | – | – | – | – | – | – | – | – | – | – | – | – | Metabolite_Notdetected | Metabolite_Notdetected
8 | COC(=O)N[C@H](C(=O)N[C@@H](Cc1ccccc1)[C@H](CN(Cc1ccc(-c2ccccn2)cc1)NC(=O)[C@@H](NC(=O)OC)C(C)(C)C)OC(=O)[C@H](NC(=O)[C@@H](N)C(C)C)C(C)C)C(C)(C)C | > 20.8 days | – | > 1420 µg/mL | – | > 1710 µg/mL | > 20.8 days | – | – | > 20.8 days | 930 µg/mL (≈ 1030 µM) | – | – | 4 to 1140 nM | 0.9 to 1250 nM | – | – | – | – | –
9 | CC(C)CN(C[C@@H](OP(=O)(O)O)[C@H](Cc1ccccc1)NC(=O)O[C@H]1CCOC1)S(=O)(=O)c1ccc(N)cc1 [FOSAMPRENAVIR] | – | – | – | – | – | – | – | – | – | – | – | – | – | – | – | – | – | Metabolite_Notdetected | Metabolite_Notdetected

The remaining lines, values ahead:

Row | half-life at 50000 µM (physchem [1]) | solubility (physchem [2]) | solubility (physchem [3]) | half-life at 50000 µM (physchem [4]) | solubility (physchem [5]) | half-life at 50000 µM (physchem [6]) | Cmax [7] | AUClast [8] | half-life at 50000 µM (physchem [9]) | solubility (physchem [10]) | Tmax [11] | Ratio [12] | IC50 (Protease) | EC50 [13] | efflux ratio (in vitro [14]) | Papp B→A at 2 µM (in vitro [15]) | Papp A→B at 2 µM (in vitro [16]) | Drug metabolism [17] | Drug metabolism [18] | SMILES
10 | > 20.8 days | – | > 3500 µg/mL | – | > 2900 µg/mL | > 20.8 days | 9 nM | 0.016 µM·h | 3.06 days | > 640 µg/mL | 0.017 days | > 200 | – | – | – | – | – | – | – | COC(=O)N[C@H](C(=O)N[C@@H](Cc1ccccc1)[C@H](CN(Cc1ccc(-c2ccccn2)cc1)NC(=O)[C@@H](NC(=O)OC)C(C)(C)C)OC(=O)CNC(=O)[C@@H](N)Cc1ccccc1)C(C)(C)C
11 | > 20.8 days | 960 µg/mL (≈ 1260 µM) | > 1600 µg/mL | 1.63 days | > 1200 µg/mL | > 20.8 days | 162 nM | 0.224 µM·h | – | – | 0.38 days | – | 4 to 1140 nM | 0.9 to 1250 nM | – | – | – | – | – | COC(=O)N[C@H](C(=O)N[C@@H](Cc1ccccc1)[C@H](CN(Cc1ccc(-c2ccccn2)cc1)NC(=O)[C@@H](NC(=O)OC)C(C)(C)C)OC(=O)CN)C(C)(C)C
12 | > 20.8 days | 360 µg/mL (≈ 456 µM) | > 1700 µg/mL | 7.83 days | > 1400 µg/mL | > 20.8 days | 66.8 nM | 0.0457 µM·h | – | – | 0.012 days | – | 4 to 1140 nM | 0.9 to 1250 nM | > 8.8 | 13.2 ×10⁻⁶ cm/s | < 1.5 ×10⁻⁶ cm/s | – | – | COC(=O)N[C@H](C(=O)N[C@@H](Cc1ccccc1)[C@H](CN(Cc1ccc(-c2ccccn2)cc1)NC(=O)[C@@H](NC(=O)OC)C(C)(C)C)OC(=O)CN(C)C)C(C)(C)C
13 | > 20.8 days | – | > 710 µg/mL | – | > 990 µg/mL | > 20.8 days | 55 nM | 0.1 µM·h | 13.9 days | < 1 µg/mL | 0.025 days | – | – | – | > 6.4 | 9.6 ×10⁻⁶ cm/s | < 1.5 ×10⁻⁶ cm/s | – | – | COC(=O)N[C@H](C(=O)N[C@@H](Cc1ccccc1)[C@H](CN(Cc1ccc(-c2ccccn2)cc1)NC(=O)[C@@H](NC(=O)OC)C(C)(C)C)OC(=O)CNCc1ccccc1)C(C)(C)C
14 | > 20.8 days | – | > 2300 µg/mL | – | > 2100 µg/mL | > 20.8 days | 51 nM | 0.307 µM·h | 3.69 days | 230 µg/mL (≈ 253 µM) | 0.021 days | > 200 | – | – | – | – | – | – | – | COC(=O)N[C@H](C(=O)N[C@@H](Cc1ccccc1)[C@H](CN(Cc1ccc(-c2ccccn2)cc1)NC(=O)[C@@H](NC(=O)OC)C(C)(C)C)OC(=O)CNC(=O)[C@H](N)Cc1ccccc1)C(C)(C)C
15 | 15.7 days | 9 µg/mL (≈ 10.4 µM) | > 1420 µg/mL | 8.95 days | > 980 µg/mL | > 20.8 days | 99 nM | 0.103 µM·h | – | – | 0.017 days | – | – | – | > 4.7 | 7.1 ×10⁻⁶ cm/s | < 1.5 ×10⁻⁶ cm/s | – | – | COC(=O)N[C@H](C(=O)N[C@@H](Cc1ccccc1)[C@H](CN(Cc1ccc(-c2ccccn2)cc1)NC(=O)[C@@H](NC(=O)OC)C(C)(C)C)OC(=O)[C@@H](N)Cc1ccc(O)cc1)C(C)(C)C
16 | > 13.9 days | – | > 2400 µg/mL | – | > 2200 µg/mL | > 20.8 days | 9 nM | 0.0296 µM·h | 1.04 days | 930 µg/mL (≈ 1200 µM) | 0.021 days | – | – | – | – | – | – | – | – | CNCC(=O)O[C@@H](CN(Cc1ccc(-c2ccccn2)cc1)NC(=O)[C@@H](NC(=O)OC)C(C)(C)C)[C@H](Cc1ccccc1)NC(=O)[C@@H](NC(=O)OC)C(C)(C)C
17 | > 20.8 days | – | > 2200 µg/mL | – | > 1200 µg/mL | 15.7 days | 285 nM | 0.359 µM·h | > 13.9 days | 20 µg/mL (≈ 21 µM) | 0.021 days | – | – | – | – | – | – | – | – | COC(=O)N[C@H](C(=O)N[C@@H](Cc1ccccc1)[C@H](CN(Cc1ccc(-c2ccccn2)cc1)NC(=O)[C@@H](NC(=O)OC)C(C)(C)C)OC(=O)CN(C)C(=O)[C@H](Cc1ccccc1)N(C)C)C(C)(C)C
18 | 15.7 days | 1 µg/mL (≈ 1.12 µM) | > 910 µg/mL | 6.97 days | > 1040 µg/mL | 15.7 days | 90 nM | 0.19 µM·h | – | – | 0.033 days | – | – | – | – | – | – | – | – | COC(=O)N[C@H](C(=O)N[C@@H](Cc1ccccc1)[C@H](CN(Cc1ccc(-c2ccccn2)cc1)NC(=O)[C@@H](NC(=O)OC)C(C)(C)C)OC(=O)[C@@H](N)Cc1c[nH]c2ccccc12)C(C)(C)C
19 | > 20.8 days | – | > 1200 µg/mL | – | > 1200 µg/mL | > 20.8 days | 64 nM | 0.154 µM·h | > 20.8 days | < 1 µg/mL | 0.021 days | – | 4 to 1140 nM | 0.9 to 1250 nM | – | – | – | – | – | COC(=O)N[C@H](C(=O)N[C@@H](Cc1ccccc1)[C@H](CN(Cc1ccc(-c2ccccn2)cc1)NC(=O)[C@@H](NC(=O)OC)C(C)(C)C)OC(=O)[C@H](N)Cc1ccccc1)C(C)(C)C
20 | 0.65 days | – | – | – | > 2700 µg/mL | 15.7 days | 160 nM | 0.092 µM·h | 0.00333 days | – | 0.012 days | – | – | – | – | – | – | – | – | CN[C@@H](Cc1ccccc1)C(=O)N(C)CC(=O)O[C@@H](CN(Cc1ccc(-c2ccccn2)cc1)NC(=O)[C@@H](NC(=O)OC)C(C)(C)C)[C@H](Cc1ccccc1)NC(=O)[C@@H](NC(=O)OC)C(C)(C)C

Source: ChEMBL document CHEMBL4390686, “Design, Synthesis, and Pharmacokinetic Evaluation of Phosphate and Amino Acid Ester Prodrugs for Improving the Oral Bioavailability of the HIV-1 Protease Inhibitor Atazanavir” (J Med Chem, 2019)
